# Experiments:
# [1] = Phase 1 oral bioavailability study of Rigosertib soft gelatin capsule in MDS patients, fasted and fed, vs IV; assay type: in vivo, human; conditions: for AUC / Cmax / Tmax / half-life / bioavailability: human, plasma, MDS patients
# Procedure: A Phase 1 study was conducted to assess oral bioavailability of a novel oral ON 01910.Na (Rigosertib) soft gelatin capsule formulation of Example 1 in MDS patients under fasted and fed conditions. This was a single-dose, three-treatment, three-period sequential design for studying the effects of food on the bioavailability of an immediate-release soft gelatin capsule formulation. The following dosing groups were tested in 12 patients: IV Dose 800 mg over 24 hours and oral dose 560 mg (2×280 mg capsules) under fasting and fed conditions. Plasma samples were collected pre-dose, over 32 hours (IV dose) or 8 hours (oral dose) after dose initiation. Rigosertib plasma levels were analyzed by a validated LC/MS/MS method. Pharmacokinetic parameters were estimated by non-compartmental analysis (WinNonlin®).
# [2] = tested on: human GM-CSF-dependent erythroblastic TF-1 cell line; test: In vitro effect of ON 01910.Na on cell cycle readouts in TF-1 cells by SCNP; assay type: cell-based; conditions: 24 hours
# Procedure: FIG. 2: In vitro effect of ON 01910.Na at clinically relevant concentrations on intracellular pathways in human GM-CSF-dependent erythroblastic TF-1 cell line using SCNP was evaluated in order to monitor transitional changes in the cell cycle, with a focus on the G2-M phase and to perform dose-dependent titrations of drug using these cell cycle readouts. The reagents chosen to measure cell cycle readouts were fluorochrome-conjugated antibodies that recognize cyclin B1, p-histone H3(S28) and p-Cdk1(Y15) and 4′6′-diamino-2-phenylindole (DAPI). […] TF-1 cell DNA content measured by DAPI verified this to be the case as increases in G2/M and sub-G1 (a measure of apoptotic cell death) were simultaneously observed. […] These effects were also observed at 48 hours, although with more cell death. This assay was used to measure the pharmacodynamics activity of the drug in MDS patient samples pre- and post-treatment with ON 01910.Na.
# [3] = Dose escalation of oral Rigosertib twice daily in patients with refractory solid tumors; assay type: in vivo, human; conditions: BID continuously, 25 patients
# Procedure: Twenty-five patients with histologically confirmed solid tumors refractory to standard therapy were given escalating doses of oral Rigosertib twice daily. Doses were increased according to a schedule until the appearance of grade 2 or grade 3/4 toxicities. The maximum tolerated dose (MTD) of oral Rigosertib administered twice daily continuously is 560 mg BID. Dysuria was identified as a potential dose-limiting adverse event and a reported toxicity. […] The antitumor activity in this study supported past observations of Rigosertib efficacy in other solid tumor clinical trials. Pharmacokinetic (PK) data reveal plasma levels with oral Rigosertib were above the predicted pharmacodynamically active levels. Final safety and efficacy results, plasma and urinary PK relationships, and mutational analyses from archival tissue are presented
# [4] = Phase I/II study of Rigosertib continuous IV infusion in relapsed or refractory AML or transformed MPN; conditions: for concentration at 6 h: human, in vivo, 2400 mg/day, average plasma levels, 2400 mg/day CIV
# Procedure: (§1) Methods: The patients were >18 years of age with relapsed or refractory AML or transformed myeloproliferative neoplasms (MPN). Patients were given Rigosertib by continuous IV infusions over 24 hours with a fixed dose of 2400 mg/day either for 72 hrs or 120 hrs every other week using a standard dose escalation scheme. A blood sample was withdrawn at 6 hrs after the start of infusion during cycle 1 and cycle 2 to assess the plasma concentration of Rigosertib. The study was subsequently amended and, after 2 cycles of IV Rigosertib (each cycle being 2 weeks) patients received Rigosertib orally, 560 mg twice a day continuously for 20 weeks. The objectives of Phase I study were to define maximum tolerated dose (MTD), dose limiting toxicities (DLT), and identify all toxicities and anti-leukemia activity. Phase II primary objective was to determine the clinical efficacy; secondary objectives were to assess time to response or progression, duration of response and overall survival at 6 months.
# as §1, with “Patients with” for “Methods: The patients were >18 years of age with”, “neoplasms (MPN)” for “neoplasms (MPN). Patients”, “hours (hrs)” for “hours”, “of phase 1” for “of Phase I”, “(DLT),” for “(DLT), and”, “Phase 2” for “Phase II”
# [5] = iv, 800 mg, 800 mg IV (24 hr infusion)
# [6] = po, 560 mg, 560 mg Oral (Fasting)
compound,measurement,setting,value
"COc1cc(OC)c(/C=C/S(=O)(=O)Cc2ccc(OC)c(NCC(=O)[O-])c2)c(OC)c1.[Na+] [Rigosertib, sodium (E)-2-{2-methoxy-5-[(2′,4′,6′-trimethoxystyrylsulfonyl)methyl]phenylamino}acetate]",decrease of AUC after a meal as compared to fasting conditions,"[1]; 560 mg oral, fed vs fasting",61%
same,decrease of Cmax after a meal as compared to fasting conditions,"[1]; 560 mg oral, fed vs fasting",77%
same,AUC,[1]; [5],52700 ± 19200 ng·h/mL
same,Cmax,[1]; [5],3140 ± 1130 ng/mL
same,Tmax,[1]; [5],2.91 ± 1.3 h
same,half-life,[1]; [5],3.25 ± 0.97 h
same,AUC,[1]; [6],6890 ± 3980 ng·h/mL
same,Cmax,[1]; [6],2420 ± 1260 ng/mL
same,Tmax,[1]; [6],1 ± 0.45 h
same,bioavailability,[1]; [6],34.9 ± 17.6%
same,half-life,[1]; [6],2.79 ± 1.23 h
same,AUC,"[1]; po, 560 mg, 560 mg Oral (Fed)",2710 ± 1510 ng·h/mL
same,Cmax,"[1]; po, 560 mg, 560 mg Oral (Fed)",560 ± 310 ng/mL
same,Tmax,"[1]; po, 560 mg, 560 mg Oral (Fed)",2.82 ± 1.15 h
same,bioavailability,"[1]; po, 560 mg, 560 mg Oral (Fed)",13.8 ± 6.04%
same,half-life,"[1]; po, 560 mg, 560 mg Oral (Fed)",2.61 ± 0.93 h
same,effect on G2/M cell cycle transition,[2]; DAPI DNA content,mitotic arrest with subsequent apoptosis
same,drug concentration of maximal effects on cell cycle signaling molecules,"[2]; cyclin B1, p-histone H3(S28), p-Cdk1(Y15)",0.37 µM
same,maximum tolerated dose (MTD),[3],560 mg
same,patients with transient hematologic response with improvement of platelets,[4]; 4 patients,16%
same,"absolute reduction of peripheral blasts (best response, stabilization of disease)",[4]; after 2 cycles,> 50%
same,patients with stabilization of disease with >50% absolute reduction of peripheral blasts,"[4]; after 2 cycles, 2/25 patients",8%
same,patients with peripheral blasts maintained at +/−10% of pretreatment level,"[4]; after 2 cycles, 4 patients",16%
same,concentration at 6 h,"[4]; week 1, 6 hrs after start of infusion",9.2 ± 5.05 µM
same,concentration at 6 h,"[4]; week 3, 6 hrs after start of infusion",9.81 ± 6.7 µM
same,toxicity profile,[4]; main adverse event transient AMS (altered mental status),acceptable toxicity profile
same,DLT dose,[4]; over 24 hrs,2400 mg
same,MTD,"[4]; over 24 hrs for 3 days, CIV",2400 mg

# Reference: patent publication US10576050B2, “Methods and compositions for treatment of cancer” (ONCONOVA THERAPEUTICS, INC., priority 2012, dated 2020)
